The target of experiment [1] is T1, GST tagged LXRbeta LBD (ligand binding domain) (Homo sapiens, UniProt P55055).
T1 construct: purchased Invitrogen pv4658.pps
T1 sequence (P55055 222-460 limits assumed): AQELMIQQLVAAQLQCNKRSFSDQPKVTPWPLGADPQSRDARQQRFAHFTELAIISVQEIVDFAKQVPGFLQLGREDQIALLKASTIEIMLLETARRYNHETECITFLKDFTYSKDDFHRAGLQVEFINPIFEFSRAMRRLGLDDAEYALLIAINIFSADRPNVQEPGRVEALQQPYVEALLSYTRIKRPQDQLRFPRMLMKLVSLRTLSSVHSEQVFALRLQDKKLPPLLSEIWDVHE
Put plainly: LanthaScreen TR-FRET Liver X Receptor Coactivator Assay, LXR beta-LBD (co-activator recruitment; IP and % Emax relative to T0901317). It counts as biochemical. The conditions noted are these: for EC50: Inflection Point of co-activator recruitment, LXR beta-LBD, TR-FRET; for Emax: efficacy at max dose in relation to reference T0901317, LXR beta-LBD, read-out: LXR beta actiivty at max dose (%). The protocol:
(§1) Potency (Inflection Point, IP) and efficacy (Emax) are evaluated via compound-induced co-activator recruitment to glutathione-S-transferase (GST) tagged LXRbeta and LXRalpha LBD (ligand binding domain) proteins in relation to reference dual agonist compound T0901317 (N-(2,2,2-Trifluoroethyl)-N-[4-[2,2,2-trifluoro-1-hydroxy-1-(trifluoromethyl)ethyl]phenyl]benzenesulfonamide) using the LanthaScreen™ TR-FRET Liver X Receptor Coactivator Assays according to manufacturer's instructions (Invitrogen catalog number pv4658.pps and pv4655). While running the LanthaScreen™ TR-FRET Liver X Receptor Coactivator Assay, LXR alpha-LBD or LXR beta-LBD was added to ligand test compounds followed by addition of a mixture of a fluorescein-labelled coactivator peptide and terbium-conjugated anti-GST antibody. After an incubation period at room temperature, TR-FRET (time-resolved fluorescence resonance energy transfer) was measured using a filter-based instrument capable of TR-FRET, e.g. PerkinElmer Envision.
Background: Time-resolved FRET reads energy transfer from a long-lived donor to a nearby acceptor.

The target of experiment [2] is T2, GST tagged LXRalpha LBD (ligand binding domain) (Homo sapiens, UniProt Q13133).
T2 construct: purchased Invitrogen pv4655
T2 sequence (Q13133 209-447 limits assumed): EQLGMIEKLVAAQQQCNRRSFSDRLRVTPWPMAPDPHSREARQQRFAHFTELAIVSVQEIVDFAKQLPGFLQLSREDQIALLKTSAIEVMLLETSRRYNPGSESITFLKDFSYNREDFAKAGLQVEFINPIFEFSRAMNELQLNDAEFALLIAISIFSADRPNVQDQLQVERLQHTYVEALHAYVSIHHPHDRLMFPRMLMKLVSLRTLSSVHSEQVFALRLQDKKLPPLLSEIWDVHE
Put plainly: LanthaScreen TR-FRET Liver X Receptor Coactivator Assay, LXR alpha-LBD (co-activator recruitment; IP and % Emax relative to T0901317). It counts as biochemical. The settings on record: for LXR alpha IP (nM) / EC50: Inflection Point of co-activator recruitment, LXR alpha-LBD, TR-FRET; for Emax: efficacy at max dose in relation to reference T0901317, LXR alpha-LBD, read-out: LXR alpha actiivty at max dose (%). The protocol:
as §1

In general, EC50 refers to the concentration giving half of the maximal effect. Read a high EC50 as a need for much substance.

With `CN(C)C(=O)c1ccc(N2CCC(CCCN(C)C(=O)[C@]3(c4ccccc4)CCCO3)CC2)nc1Cl` [Example 1-10, (R)-2-chloro-N,N-dimethyl-6-(4-(3-(N-methyl-2-phenyl-tetrahydrofuran-2-carboxamido)propyl)piperidin-1-yl)nicotinamide], in experiment [1], the EC50 worked out at 0.072 µM and the Emax amounted to 71%. Also, in experiment [2], the “LXR alpha IP (nM)” value is “No IP” and the Emax was found to be 9%.
On to `CN(C)C(=O)c1ccc(N2CCC([C@H]3C[C@H]3CN(C)C(=O)[C@](O)(c3cc(Cl)cc(Cl)c3)C(F)(F)F)CC2)nc1Cl` [Example 15-6, 2-chloro-6-(4-((1R,2R)-2-(((R)-2-(3,5-dichlorophenyl)-3,3,3-trifluoro-2-hydroxy-N-methylpropanamido)methyl)cyclopropyl)piperidin-1-yl)-N,N-dimethylnicotinamdie], for which, in experiment [1], the EC50 came to 0.009 µM and the Emax turned out to be 29%. In experiment [2], the “LXR alpha IP (nM)” value was “No IP” and the Emax stood at 4%.
Consider `CN(C)C(=O)c1ccc(N2CCC(CCCNC(=O)[C@](O)(c3cccc(OC4CC4)c3)C(F)(F)F)CC2)nc1Cl` [Example 5-11, (R)-2-chloro-6-(4-(3-(2-(3-cyclopropoxyphenyl)-3,3,3-trifluoro-2-hydroxypropanamido)propyl)piperidin-1-yl)-N,N-dimethylnicotinamide], for which, in experiment [1], the EC50 was 0.349 µM and the Emax stood at 46%. In experiment [2], the “LXR alpha IP (nM)” value is listed as “No IP” and the Emax is -8%.
Turning to `CN(C)C(=O)c1ccc(N2CCC(CCCN(C)C(=O)[C@@](O)(c3cccc(OC(F)F)c3)C(F)(F)F)CC2)nc1Cl` [Example 1-50, (S)-2-chloro-6-(4-(3-(2-(3-(difluoromethoxy)phenyl)-3,3,3-trifluoro-2-hydroxy-N-methyl-propanamido)propyl)piperidin-1-yl)-N,N-dimethylnicotinamide], in experiment [1], the EC50 was 0.062 µM and the Emax is 63%. In experiment [2], the “LXR alpha IP (nM)” value is “No IP” and the Emax came to 18%.
`CN(C)C(=O)c1ccc(N2CCC(CCCN(C)C(=O)C3(c4ccccc4)CCCC3)CC2)nc1Cl` [Example 1-42, 2-chloro-N,N-dimethyl-6-(4-(3-(N-methyl-1-phenylcyclopentanecarboxamido)pro-pyl)piperidin-1-yl)nicotinamide]: in experiment [1], a half-maximal response (EC50) required 0.092 µM and the Emax turned out to be 64%. Besides, in experiment [2], the “LXR alpha IP (nM)” value is “No IP” and the Emax was found to be 11%.
Turning to `CN(C)C(=O)c1ccc(N2CCC([C@H]3C[C@@H](N(C)C(=O)[C@](O)(c4cccc(OC5CC5)c4)C(F)(F)F)C3)CC2)nc1Cl` [Example 17-5, Cis-2-chloro-6-(4-(-3-((R)-2-(3-cyclopropoxyphenyl)-3,3,3-trifluoro-2-hydroxy-N-methylpropanamido)cyclobutyl)piperidin-1-yl)-N,N-dimethylnicotinamide], in experiment [1], a half-maximal response (EC50) required 0.148 µM and the Emax was determined as 20%. In experiment [2], the “LXR alpha IP (nM)” value is reported as “No IP” and the Emax was found to be 0%.
Regarding `CCc1cccc([C@](O)(C(=O)N(C)CCCC2CCN(c3ccc(C(=O)N(C)C)c(Cl)n3)CC2)C(F)(F)F)c1` [Example 1-31, (S)-2-chloro-6-(4-(3-(2-(3-ethylphenyl)-3,3,3-trifluoro-2-hydroxy-N-methylpropanamido)propyl)piperidin-1-yl)-N,N-dimethylnicotinamide], in experiment [1], the half-maximal effective concentration (EC50) worked out at 0.163 µM and the Emax stood at 56%. Also, in experiment [2], the “LXR alpha IP (nM)” value is on record as “No IP” and the Emax amounted to 0%.
Regarding `COc1cccc([C@@](O)(C(=O)N(C)CCCC2CCN(c3ccc(C(=O)N(C)CCn4cncn4)c(Cl)n3)CC2)C(F)(F)F)c1` [Example 2-14], in experiment [1], a half-maximal effect (EC50) was put at 0.083 µM and the Emax worked out at 67%. In experiment [2], the “LXR alpha IP (nM)” value was “No IP” and the Emax came to 14%.
Turning to `CCOc1cccc([C@@](O)(C(=O)NCCCC2CCN(c3ccc(C(=O)N(C)C)c(Cl)n3)CC2)C(F)(F)F)c1` [Example 5-10, (R)-2-chloro-6-(4-(3-(2-(3-ethoxyphenyl)-3,3,3-trifluoro-2-hydroxy-propanamido)propyl)piperidin-1-yl)-N,N-dimethylnicotinamide], in experiment [1], a half-maximal response (EC50) required 0.343 µM and the Emax stood at 58%. In experiment [2], the “LXR alpha IP (nM)” value is on record as “No IP” and the Emax turned out to be 3%.
For `CN(C)C(=O)c1ccc(N2CCC(CCCN(C)C(=O)[C@@](O)(c3cccc(C4CC4)c3)C(F)(F)F)CC2)nc1Cl` [Example 1-34, (S)-2-chloro-6-(4-(3-(2-(3-cyclopropylphenyl)-3,3,3-trifluoro-2-hdyroxy-N-methylpropanamido)propyl)piperidin-1-yl)-N,N-dimethylnicotinamide], in that order: 0.261 µM, 49%, “No IP” and 16%.
In the case of `CNC(=O)c1ccc(N2CCC(CCCN(C)C(=O)[C@](O)(c3cccc(OC)c3)C(F)(F)F)CC2)nc1Cl` [Example 2-11, (R)-2-chloro-N-methyl-6-(4-(3-(3,3,3-trifluoro-2-hydroxy-2-(3-methoxyphenyl)-N-methylpropanamido)propyl)piperidin-1-yl)nicotinamide], in experiment [1], a half-maximal effect (EC50) was put at 0.524 µM and the Emax worked out at 60%. In addition, in experiment [2], the “LXR alpha IP (nM)” value is on record as “No IP” and the Emax worked out at 13%.
On to `CC(C)Oc1cccc(C(O)(C(=O)N(C)CCCC2CCN(c3ccc(C(=O)N(C)C)c(Cl)n3)CC2)C(F)(F)F)c1` (centres unmarked) [Example 1-32, 2-chloro-N,N-dimethyl-6-(4-(3-(3,3,3-trifluoro-2-hydroxy-2-(3-isopropoxyphenyl)-N-methylpropanamido)propyl)piperidin-1-yl)nicotinamide], for which, in experiment [1], the EC50 amounted to 0.095 µM and the Emax is 48%. In addition, in experiment [2], the “LXR alpha IP (nM)” value is on record as “No IP” and the Emax turned out to be 0%.
Take `CN(C)C(=O)c1ccc(N2CCC(CCCN(C)C(=O)[C@](O)(c3cccc(OC(F)(F)F)c3)C(F)(F)F)CC2)nc1Cl` [Example 1-40, (R)-2-chloro-N,N-dimethyl-6-(4-(3-(3,3,3-trifluoro-2-hydroxy-N-methyl-2-(3-(trifluoromethoxy)phenyl)propanamido)propyl)piperidin-1-yl)nicotinamide]: in experiment [1], the EC50 was 0.052 µM and the Emax worked out at 63%. Besides, in experiment [2], the “LXR alpha IP (nM)” value is given as “No IP” and the Emax was 0%.
Take `CN(C)C(=O)c1ccc(N2CCC(C)(CCCN(C)C(=O)[C@]3(c4ccccc4)CCCO3)CC2)nc1Cl` [Example 9-3, (R)-2-chloro-N,N-dimethyl-6-(4-methyl-4-(3-(N-methyl-2-phenyltetrahydrofuran-2-carboxamido)propyl)piperidin-1-yl)nicotinamide]: the EC50 in experiment [1] was 0.014 µM; in experiment [2], 0.198 µM. The Emax in experiment [1] is 94%; in experiment [2] it was 31%.
As to `COc1cccc([C@@](O)(C(=O)N(C)CCCC2CCN(c3ccc(C(=O)N(C)CCO)c(Cl)n3)CC2)C(F)(F)F)c1` [Example 2-5, (R)-2-chloro-N-(2-hydroxyethyl)-N-methyl-6-(4-(3-(3,3,3-trifluoro-2-hydroxy-2-(3-methoxyphenyl)-N-methylpropanamido)propyl)piperidin-1-yl)nicotinamide], in experiment [1], a half-maximal effect (EC50) was put at 0.028 µM and the Emax was 63%. Also, in experiment [2], a half-maximal response (EC50) required 0.705 µM and the Emax worked out at 23%.
In the case of `CNC(=O)c1ccc(N2CCC3(CC2)C[C@H]3CCN(C)C(=O)[C@](O)(c2cccc(OC)c2)C(F)(F)F)cc1Cl` [Example 7-21, 2-chloro-N-methyl-4-((S)-1-(2-((R)-3,3,3-trifluoro-2-hydroxy-2-(3-methoxyphenyl)-N-methylpropanamido)ethyl)-6-azaspiro[2.5]octan-6-yl)benzamide], in experiment [1], the concentration giving a half-maximal response (EC50) was 1.55 µM and the Emax is 36%. Also, in experiment [2], the “LXR alpha IP (nM)” value is recorded as “No IP” and the Emax was found to be 12%.
`COc1cccc([C@@](O)(C(=O)N(C)C2CC(CC3CCN(c4ccc(C(=O)N(C)C)c(C)n4)CC3)C2)C(F)(F)F)c1` (single isomer, unassigned) [first eluting peak]: the “activity (stated in words in the synthesis text)” value in experiment [1] (cis/trans isomers of Example 11-1 separated by Prep-HPLC (RT=1.95 min, 1.98 min), assay not given) is listed as “not active”.

For the origin of these results see US10961215B2, “N-aryl and N-heteroaryl piperidine derivatives as liver X receptor beta agonists, compositions, and their use” (Merck Sharp & Dohme Corp., priority 2016, dated 2021).
